Reference: publication PMC10046862, “Screening of EWI-2-Derived Peptides for Targeting Tetraspanin CD81 and Their Effect on Cancer Cell Migration” (Biomolecules, 2023)
“Also recorded” adds a separate entry of the source. Blank lines part the entries; values can stand above or below the molecule they belong to.

Columns and labels:
[1] = system: Recombinant CD81 human protein (LEL Phe113-Lys201); test: Binding assay between EWI-2 peptide array and Alexa Fluor 488-labeled CD81 (screening); details: 500 nM labeled CD81, room temperature, 3 h, 3% BSA block; blank-subtracted; fluorescence scan; n = 3
Method: The peptide array was prepared similarly to the method described in previous reports. A peptide library of eight-residue peptides was obtained by overlapping four residues from Ig3 to the C-terminus of human EWI-2 (accession number: Q969P0) (Table S1). Next, the EWI-2 peptide array was synthesized on a Fmoc-β-Alanine-activated cellulose membrane using Fmoc-based chemistry. The synthesis cycle was initiated by deprotecting the N-terminal Fmoc group with 20% piperidine in DMF and then washing it with DMF and EtOH, respectively. […]
The Alexa Fluor™ 488 protein labeling kit (Thermo Fisher Scientific, Waltham, MA, USA) was applied to fluorescently label the CD81 protein. […] The concentration of the labeled CD81 protein solution was finally quantified using a Bradford protein assay kit (Takara Bio Inc., Shiga, Japan).
First, to reduce nonspecific interactions, the peptide array was blocked by 3% BSA in Tris–HCl buffer at room temperature for 15 min, followed by membrane washing with Tris–HCl buffer. […] Finally, the membrane was fluorescence-scanned and imaged by a biomolecular imager (Typhoon FLA 9500; GE Healthcare, Hatfield, UK), before the spot intensity of each peptide was measured using GE Healthcare’s ImageQuant TL 8.1 software.

[2] = system: MDA-MB-231 human breast cancer cells; test: Boyden chamber assay (CytoSelect 96-well cell migration); assay type: cell-based; details: 100 nM, 37 °C, n = 3; for Migration of MDA-MB-231 cells vs non-treatment: 24 h (1 h pre-incubation), 5% CO2, CyQuant GR fluorescence, t-test p < 0.05; for Anti-migration activity, P152 vs scrambled peptides: t-test, comparison with scrambled P152-1 and P152-2 (Figure 5)
Method: A Boyden chamber assay was performed using the CytoSelect™ 96-well cell migration assay kit (8 µm, Fluorometric Format, Cat. No. CBA-106; Cell Biolabs, Inc., San Diego, CA, USA). Human breast cancer MDA-MB-231 cells (HTB-26TM; American Type Culture Collection, Manassas, VA, USA) were suspended in serum-free D-MEM medium (1.85 × 10^5 cells/mL) containing 100 nM CD81-BP, AAAA or CD81 antibody (5A6) at 37 °C and 5% CO2 for 1 h. Then, within the Boyden chamber, 100 µL of the serum-free cell suspension was added to the upper chamber, while 150 µL of 10% FBS-containing medium was placed in the lower chamber. After incubation at 37 °C and 5% CO2 for 24 h, the cells that migrated to the lower chamber were detached from the membrane by cell detachment buffer, lysed by lysis buffer, and stained with CyQuant® GR dye. The fluorescence intensity of the cell lysate was analyzed at 480/520 nm by a microplate reader (Biomedical Solutions, Inc., Stafford, TX, USA).
The experiment was performed with at least three replicates. The t-test was performed using Prism 9 (GraphPad Software, Inc., La Jolla, CA, USA) or Microsoft Excel (Microsoft, WA, USA) to analyze the statistical significance difference. The statistical significance was set at p-value < 0.05.

[3] = target: T1, Recombinant CD81 human protein, large extracellular loop (LEL, Phe113-Lys201), Alexa Fluor 488-labeled (human, UniProt P60033 113-201, Alexa Fluor 488 dye (succinimidyl ester labeling)); test: peptide or protein array; candidate peptides and control AAAA on cellulose membrane, blocked with 3% BSA; Alexa488-labeled CD81 at 50 nM to 1 µM, room temperature, 3 h; AAAA-subtracted spot intensity fitted to the Hill equation; estimated KD; details: both partners purified
T1 construct: two additional amino acids (Gly and Pro) at the N-terminus of the LEL; CD81, human, large extracellular loop (LEL), Phe113-Lys201; also called CD81 protein; CD81 LEL; source: bought: Sino Biological (Cat. No. 14244-HNCH); labeled with the Alexa Fluor 488 protein labeling kit
T1 sequence: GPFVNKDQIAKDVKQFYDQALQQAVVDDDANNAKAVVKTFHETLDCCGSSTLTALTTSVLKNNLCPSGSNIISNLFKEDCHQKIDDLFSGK

Molecule: ASRTYRLR [Peptide P97]
- Spot fluorescence intensity on array (candidate selection) [1]: greater than the average (AVG) and two standard deviations (SD)
- Migration of MDA-MB-231 cells vs non-treatment [2]: no distinct inhibition was observed

Molecule: FMKRLRKR [Peptide P153, EWI-2-derived CD81-BP candidate, FMKRLRKR]
- Spot fluorescence intensity on array (candidate selection) [1]: greater than the average (AVG) and two standard deviations (SD)
- Migration of MDA-MB-231 cells vs non-treatment [2]: could significantly reduce the migration of MDA-MB-231 cells
- Inhibition of migration compared with anti-human CD81 antibody 5A6 ([2]; 24 h): comparable or competitive to an anti-CD81 monoclonal human antibody (5A6)

Molecule: FRKCKMRL [Peptide P152-1, scrambled peptide of P152 (FRKCKMRL)]
- Anti-migration activity, P152 vs scrambled peptides ([2]; 24 h): showed the impact on MDA-MB-23 cell migration as seemingly as the original P152; also recorded: only P152 origin showed statistical significance (p-value < 0.05)

Molecule: KKRCRFLM [Peptide P152-2, scrambled peptide of P152 (KKRCRFLM)]
- Anti-migration activity, P152 vs scrambled peptides ([2]; 24 h): only P152 origin showed statistical significance (p-value < 0.05)

- Kd [3]: 0.91 µM
B1: P152 (CFMKRLRK), EWI-2-derived eight-residue peptide (peptide)
peptide: CFMKRLRK
modifications: synthesized on a Fmoc-β-Alanine-activated cellulose membrane
notes: eight-residue stretch of human EWI-2 (immunoglobulin superfamily member 8), near the C-terminus; For the migration assay the peptide was made as a free powder on Rink amide resin; also called CD81-BP candidate; source: synthetic peptide, spot-synthesized on cellulose membrane (peptide array)

- Kd [3]: 12.6 µM
B2: P153 (FMKRLRKR), EWI-2-derived eight-residue peptide (peptide)
peptide: FMKRLRKR
modifications: synthesized on a Fmoc-β-Alanine-activated cellulose membrane
notes: last eight residues of human EWI-2 (immunoglobulin superfamily member 8); also called CD81-BP candidate; source: synthetic peptide, spot-synthesized on cellulose membrane (peptide array)

- Kd [3]: 1.63 µM
B3: P132 (RSHRLRLH), EWI-2-derived eight-residue peptide (peptide)
peptide: RSHRLRLH
modifications: synthesized on a Fmoc-β-Alanine-activated cellulose membrane
notes: eight-residue stretch of human EWI-2 (immunoglobulin superfamily member 8), between the Ig3 domain and the C-terminus; also called CD81-BP candidate; source: synthetic peptide, spot-synthesized on cellulose membrane (peptide array)

- Kd [3]: 1.06 µM
B4: P97 (ASRTYRLR), EWI-2-derived eight-residue peptide (peptide)
peptide: ASRTYRLR
modifications: synthesized on a Fmoc-β-Alanine-activated cellulose membrane
notes: eight-residue stretch of human EWI-2 (immunoglobulin superfamily member 8), between the Ig3 domain and the C-terminus; For the migration assay the peptide was made as a free powder on Rink amide resin; also called CD81-BP candidate; source: synthetic peptide, spot-synthesized on cellulose membrane (peptide array)
